Entries after “also recorded” stand apart in the source; their conditions may differ. Each block holds one compound with its values, some of them ahead of it. Where no end group is shown, it is not given here.
Columns and labels:
[1] = system: cerebellar granule neurons from P7 rats; assay: Neurite outgrowth (growth) assay, cerebellar neurons; type: cell-based, rat; conditions: data not shown
[2] = system: cerebellar granule neurons; assay: Ca2+ fluorescence imaging (Oregon-green 488BAPTA-1 and Fura Red); type: cell-based; conditions: p7 rat cerebellar granule neurons; inhibitor or antibody with MAG
p75 = target: T1, p75 (Mus musculus, UniProt Q9Z0W1); assay: Co-precipitation of p75 with GST-Pep5; type: binding; conditions: lysates from post-natal cerebellum
T1 construct: was incubated with lysates prepared from post-natal cerebellum that abundantly express p75; from tissue; host or cells: post-natal cerebellum lysate
T1 sequence (Q9Z0W1 32-427): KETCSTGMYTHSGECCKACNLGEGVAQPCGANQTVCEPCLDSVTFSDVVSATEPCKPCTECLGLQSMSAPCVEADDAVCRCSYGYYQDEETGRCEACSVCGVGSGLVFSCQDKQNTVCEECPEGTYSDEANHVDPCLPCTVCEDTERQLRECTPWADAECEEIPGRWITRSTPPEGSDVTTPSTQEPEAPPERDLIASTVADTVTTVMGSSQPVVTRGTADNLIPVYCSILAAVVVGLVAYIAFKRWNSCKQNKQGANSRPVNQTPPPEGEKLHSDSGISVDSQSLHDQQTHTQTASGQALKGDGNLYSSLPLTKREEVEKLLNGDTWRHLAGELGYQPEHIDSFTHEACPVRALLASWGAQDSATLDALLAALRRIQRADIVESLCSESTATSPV

RhoA = assay: Affinity-precipitation of GTP-RhoA in cerebellar neurons; type: cell-based, mouse; conditions: MAG-Fc 25 μg/ml, Nogo peptide 4 μM
Description: 293 cells were transfected with pcDNA3 vectors containing wild type RhoA whose NH2-terminus is tagged with HA (Yamashita, T. et al., Neuron. 24:585-593, 1999) and/or full-length human p75 by lipofection using Lipofectamine 2000 (Gibco BRL). Cerebellar neurons from P9 mice were isolated as described previously (Cai et al, Neuron, 22:89-101, 1999). Cells were lysed in 50 mM Tris (pH 7.5), 1% Triton X-100, 0.5% sodium deoxycholate, 0.1% SDS, 500 mM NaCl, 10 mM MgCl2, with leupeptin and aprotinin, each at 10 μg/ml. Cell lysates were clarified by centrifugation at 13,000×g at 4° C. for 10 min, and the supernatants were incubated with the 20 μg of GST-Rho binding domain of Rhotekin beads (Upstate Biotech.) at 4° C. for 45 min. The beads were washed 4 times with washing buffer (50 mM Tris (pH 7.5) containing 1% Triton X-100, 150 mM NaCl, 10 mM MgCl2, 10 μg/ml each of leupeptin and aprotinin). Bound Rho proteins were detected by Western blotting using a monoclonal antibody against RhoA (Santa Cruz Biotechnology).
Amino-terminally FLAG-tagged human p75 or the deletion mutants of p75 ICD were cloned into pcDNA3.1 expression plasmid, and were transfected with 293T cells. […] Bound Rho proteins were detected by Western blotting using a monoclonal antibody against RhoA (Santa Cruz Biotechnology).

[3] = target: T2, interaction of p75 with Rho GDI (Homo sapiens, UniProt P08138); assay: Co-immunoprecipitation of p75 with Rho GDI or RhoA in transfected N1E-115 cells; type: cell-based; conditions: N1E-115 cells transfected with FLAG-tagged p75; Nogo peptide 4 μM, MAG-Fc 25 μg/ml, NGF 100 ng/ml
T2 construct: expressed in transfected cells; host or cells: N1E-115
T2 sequence (P08138 29-427): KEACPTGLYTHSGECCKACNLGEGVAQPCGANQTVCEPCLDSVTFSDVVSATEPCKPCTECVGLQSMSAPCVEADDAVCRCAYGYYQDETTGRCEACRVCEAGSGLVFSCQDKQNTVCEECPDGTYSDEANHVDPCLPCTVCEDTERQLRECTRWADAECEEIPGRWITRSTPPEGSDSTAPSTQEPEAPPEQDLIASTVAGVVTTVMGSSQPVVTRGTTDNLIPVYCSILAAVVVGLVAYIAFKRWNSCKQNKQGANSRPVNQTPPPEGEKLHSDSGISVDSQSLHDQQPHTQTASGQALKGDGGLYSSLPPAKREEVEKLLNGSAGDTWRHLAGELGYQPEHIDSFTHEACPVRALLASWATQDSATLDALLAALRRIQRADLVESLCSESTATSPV

DRG neurons = assay: Neurite outgrowth assay, adult DRG neurons; type: cell-based, mouse; conditions: peptide 100 nM
cerebellar neurons = assay: Neurite outgrowth assay, post-natal cerebellar neurons; type: cell-based, mouse
male Wistar rats [4] = assay: Spinal cord injury (dorsal half dissected, ninth thoracic vertebra), agent pumped to the injured site; type: in vivo, rat; conditions: continuous osmotic pump to the injured site; versus control peptide
Description: 200 g male Wistar rats were used. After the ninth thoracic vertebrae laminectomy was performed, the dorsal half of the spinal cord was dissected. A continuous osmotic pump was used to continuously administer either TAT(PTD domain)-fused Pep5 (TAT-[…]) (SEQ ID NO. 2) or TAT(PTD domain)-fused control peptide (TAT-[…]) (SEQ ID NO. 15) to the injured site for 6 weeks ([…]). In this case, the tip of a tube connected to the pump was left in the medullary space. After spinal cord injury, the functional recovery was assessed using the BBB score. The animals were observed on day 7, 14, 21, 28, 35, and 42 after injury. These experiments were carried out using techniques described in Fournier A. E., Takizawa, B. T., Strittmatter, S. M., J. Neurosci. 2003, 23, 1416-1423.
200 g male Wistar rats were used. After the ninth thoracic vertebrae laminectomy was performed, the dorsal half of the spinal cord was dissected. A continuous osmotic pump was used to continuously administer either TAT-fused Pep5 or TAT (PTD domain)-fused control peptide to the injured site.

mice = assay: Spinal cord injury, similar experiments for mice (Example 2-7); type: in vivo, mouse
Description: Similar experiments were carried out for mice as described above.

[5] = target: Rho-kinase (GST-CAT; aa 6-553) (Bos taurus, UniProt Q28021); assay: In vitro binding assay of p21 and Rho-kinase; conditions: p21 1 nM
[6] = system: Rho kinase fragment (aa 1-543); assay: Rho-kinase kinase assay in vitro (S6 kinase substrate peptide); type: biochemical
male Wistar rats [7] = assay: Spinal cord injury, p21 and TAT-bound p21, BBB score; type: in vivo, rat; conditions: osmotic pump to the injured site for 2 weeks; observed from day 2 for 6 weeks
Description: 200 g male Wistar rats were used. After a ninth thoracic vertebrae laminectomy was performed, the dorsal half of the spinal cord was dissected. […] In this case, the tip of a tube connected to the pump was left in the medullary space.
After spinal cord injury, the functional recovery was assessed using the BBB score (Basso-Beattie-Bresnahan (BBB) Locomotor Rating; Basso, D. M., Beattie, M. S., Bresnahan, J. C., J. Neurotrauma 12 (1):1-21 (1995) ). Observation was carried out from day 2 after injury for 6 weeks.

Rho-kinase (GST-CAT; aa 6-553), sequence (Q28021 6-553): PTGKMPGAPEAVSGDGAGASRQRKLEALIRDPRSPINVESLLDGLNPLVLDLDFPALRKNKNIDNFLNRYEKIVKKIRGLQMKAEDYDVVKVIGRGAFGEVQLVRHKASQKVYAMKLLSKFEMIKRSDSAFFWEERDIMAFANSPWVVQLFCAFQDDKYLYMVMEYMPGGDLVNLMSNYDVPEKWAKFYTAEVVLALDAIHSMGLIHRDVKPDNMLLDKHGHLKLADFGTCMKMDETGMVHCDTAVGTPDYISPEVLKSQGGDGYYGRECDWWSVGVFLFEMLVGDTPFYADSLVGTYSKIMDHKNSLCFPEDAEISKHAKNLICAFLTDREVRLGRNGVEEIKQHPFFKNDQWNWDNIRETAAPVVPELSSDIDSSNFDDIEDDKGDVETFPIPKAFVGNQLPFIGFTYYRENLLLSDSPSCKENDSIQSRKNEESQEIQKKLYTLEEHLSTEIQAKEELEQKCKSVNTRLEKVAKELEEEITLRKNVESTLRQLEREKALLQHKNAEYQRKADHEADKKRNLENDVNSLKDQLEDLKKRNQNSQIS

Compound: Cn1c2ccccc2c2c3c(c4c5ccccc5n(CCC#N)c4c21)CNC3=O [G06976]
neurite outgrowth by MAG-Fc or Nogo peptide when another PKC inhibitor was used [1]: Same results

Compound: COc1ccc2c(c1)CC[C@@H]1[C@@H]2CC[C@]2(C)[C@@H](NCCCCCCN3C(=O)C=CC3=O)CC[C@@H]12 [U73122]
effect on Ca2+ elevation induced by MAG [2]: blocked

Compound: GST-Pep5: Glutathione S-transferase-fusion protein containing Pep5 (CFFRGGFFNHNPRYC; cysteine pairing not given here; also: GST fusion protein)
co-precipitation of p75 with GST-Pep5 (p75): presence of a protein corresponding to p75

Compound: NGF: Nerve growth factor [reference compound]
RhoA activity in cerebellar granule neurons from wild type mice (P9) (RhoA): rapidly inhibits RhoA activity
interaction of p75 with Rho GDI and RhoA [3]: abolished the interaction of p75 with Rho GDI as well as RhoA

Compound: TAT-CFFRGGFFNHNPRYC ({TAT}-CFFRGGFFNHNPRYC; cysteine pairing not given here) [TAT-Pep5, Pep5 fused with the amino-terminal 11 amino acid protein transduction domain of HIV TAT]
responsiveness of DRG neurons to MAG (25 μg/ml) and the Nogo peptide (4 μM) (DRG neurons): abolished their responsiveness
inhibitory effect of MAG (25 μg/ml) and the Nogo peptide (4 μM) on post-natal cerebellar neurons (cerebellar neurons): efficiently silenced the inhibitory effect
activation of RhoA induced by MAG-Fc or the Nogo peptide (RhoA; TAT-Pep5 1 μM, 30 min): inhibited the activation of RhoA; also recorded: completely abolishes these effects
nerve regeneration after spinal cord injury (male Wistar rats [4]): nerve regeneration was significantly observed
nerve regeneration after spinal cord injury (mice): nerve regeneration was similarly observed

in vitro interaction with the catalytic region of Rho-kinase [5]: bound to each other in vitro
Compound: p21: recombinant full-length p21 (1-164 in SEQ ID NO. 23), cyclin-dependent protein kinase inhibitor
Rho-kinase activity toward S6 kinase substrate peptide [6]: inhibited the Rho-kinase activity toward S6 kinase substrate peptide in a dose-dependent manner
functional recovery after spinal cord injury (BBB score) (male Wistar rats [7]): not sufficiently observed
